The values that follow come from patent publication US20050197350A1, “Novel quinoline, tetrahydroquinazoline, and pyrimidine derivatives and methods of treatment related to the use thereof” (TAISHO PHARMACEUTICAL CO., LTD., priority 2003, published 2005).

Like-named read-outs stand apart in the source and are kept apart here.

The assay deals with MCH receptors. Briefly: MCH receptor activity class (method not given).
[1] abbreviates: class 1-3 by percent of control at 10^-7 M or IC50.
[2] abbreviates: MCH receptor, class by percent of control at 10^-7 M or IC50.
The mark [3] stands for this setting: activity class per percent of control at 10^-7 M or IC50.
Setting [4] is: class by percent of control at 10^-7 M or IC50.
[5] abbreviates: MCH receptor activity class 1-3 (percent of control at 10^-7 M or IC50).
Where [6] appears, read: activity class 1-3: percent of control at 10^-7 M or IC50.

As for `CN(C)c1nc(N[C@H]2CC[C@@H](CNC(=O)c3cccc(C#N)c3)CC2)nc2c1CCCC2` [compound 591], the class under setting [1] was 3 (Class 3 The value of percent of control at 10^−7 M was more than 60% or the value of IC50 was more than 200 nM.).

For the compound `CN(C)c1nc(N[C@H]2CC[C@@H](NC(=S)Nc3cc(F)ccc3Br)CC2)nc2c1CCCC2` [compound 2061], the class under setting [2] is listed as 3 (Class 3 The value of percent of control at 10^−7 M was more than 60% or the value of IC50 was more than 200 nM.).

For the compound `CN(C)c1nc(N[C@H]2CC[C@@H](CNC(=O)c3ccccc3Cc3ccccc3)CC2)nc2c1CCCC2` [compound 1072], the class under setting [3] was 3 (Class 3 The value of percent of control at 10^−7 M was more than 60% or the value of IC50 was more than 200 nM.). Consider `CN(C)c1ccnc(N[C@H]2CC[C@@H](CNCc3csc4ccccc34)CC2)n1` [compound 1299], for which the class under setting [4] was 3 (Class 3 The value of percent of control at 10^−7 M was more than 60% or the value of IC50 was more than 200 nM.). As to `CN(C)c1cc(N[C@H]2CC[C@@H](CNC(=O)Nc3ccc(F)c(F)c3)CC2)nc2ccccc12` [compound 2402], under setting [5], the class was 3 (Class 3 The value of percent of control at 10^−7 M was more than 60% or the value of IC50 was more than 200 nM.). Regarding `COc1cc(CCN[C@H]2CC[C@@H](Nc3nc4c(c(N(C)C)n3)CCCC4)CC2)cc(OC)c1` [compound 1493], the class under setting [4] is listed as 2 (Class 2: The value of percent of control at 10^−7 M was from 40% to 60% or the value of IC′50 was from 50 nM to 200 nM.). As to `CN(C)c1ccnc(N[C@H]2CC[C@@H](NC(=O)C3CCCC[C@H]3C(=O)c3ccccc3)CC2)n1` (some centres unmarked) [compound 832], under setting [4], the class is 3 (Class 3 The value of percent of control at 10^−7 M was more than 60% or the value of IC50 was more than 200 nM.). For the compound `CN(C)c1cc(N[C@H]2CC[C@@H](CNC(=O)Nc3ccccc3I)CC2)nc2ccccc12` [compound 2378], the class under setting [5] is recorded as 3 (Class 3 The value of percent of control at 10^−7 M was more than 60% or the value of IC50 was more than 200 nM.). Regarding `CC(C)c1cc(Br)c(NC(=O)N[C@H]2CC[C@@H](Nc3nccc(N(C)C)n3)CC2)c(Br)c1` [compound 2252], the class under setting [4] is reported as 2 (Class 2: The value of percent of control at 10^−7 M was from 40% to 60% or the value of IC′50 was from 50 nM to 200 nM.). With `CN(C)c1nc(N[C@H]2CC[C@@H](NC(=O)c3cc(C(C)(C)C)nn3Cc3ccc(Cl)cc3Cl)CC2)nc2c1CCCC2` [compound 577], the class under setting [1] is on record as 3 (Class 3 The value of percent of control at 10^−7 M was more than 60% or the value of IC50 was more than 200 nM.). `Cc1cc(C(=O)NC[C@H]2CC[C@@H](Nc3nc4c(c(N(C)C)n3)CCCC4)CC2)ccc1[N+](=O)[O-]` [compound 1076]: the class under setting [3] is given as 3 (Class 3 The value of percent of control at 10^−7 M was more than 60% or the value of IC50 was more than 200 nM.). As to `COc1ccc(CC(=O)N[C@H]2CC[C@@H](Nc3cc(N(C)C)c4ccccc4n3)CC2)cc1OC` [compound 123], the class under setting [2] is reported as 3 (Class 3 The value of percent of control at 10^−7 M was more than 60% or the value of IC50 was more than 200 nM.).

For `COc1cccc(C(=O)N[C@H]2CC[C@@H](Nc3cc(C)c4ccccc4n3)CC2)c1` [Example 2549, 3-methoxy-N-{cis-4-[(4-methylquinolin-2-yl)amino]cyclohexyl}benzamide], the class came out at 1.

With `Cc1c(Cl)cccc1NC(=S)N[C@H]1CC[C@@H](Nc2nc3c(c(N(C)C)n2)CCCC3)CC1` [compound 1786], under setting [4], the class is 3 (Class 3 The value of percent of control at 10^−7 M was more than 60% or the value of IC50 was more than 200 nM.).

Consider `CN(C)c1cc(N[C@H]2CC[C@@H](NC(=O)c3ccc4ccccc4c3)CC2)nc2ccccc12` [compound 110], for which the class under setting [2] was 3 (Class 3 The value of percent of control at 10^−7 M was more than 60% or the value of IC50 was more than 200 nM.). On to `CN(C)c1ccnc(N[C@H]2CC[C@@H](CNC(=O)Nc3c(F)cc(Br)cc3Br)CC2)n1` [compound 2417], for which the class under setting [5] is listed as 1 (Class 1: The value of percent of control at 10^−7 M was less than 40% or the value of IC50 was less than 50 nM.). Take `Cc1cc(C(=O)NC[C@H]2CC[C@@H](Nc3cc(N(C)C)c4ccccc4n3)CC2)ccc1Br` [compound 184]: the class under setting [2] is listed as 3 (Class 3 The value of percent of control at 10^−7 M was more than 60% or the value of IC50 was more than 200 nM.).

On to `Cc1c(Cl)cccc1NC(=S)N[C@H]1CC[C@@H](Nc2cc(N(C)C)c3ccccc3n2)CC1` [compound 2306], for which the class under setting [5] is 3 (Class 3 The value of percent of control at 10^−7 M was more than 60% or the value of IC50 was more than 200 nM.).

For the compound `CN(C)c1ccnc(N[C@H]2CC[C@@H](NC(=O)c3csc(-c4cccs4)n3)CC2)n1` [compound 364, N-(cis-4-{[4-(dimethylamino)pyrimidin-2-yl]amino}cyclohexyl)-2-(2-thienyl)-1,3-thiazole-4-carboxamide], the class under setting [4] is 1 (Class 1: The value of percent of control at 10^−7 M was less than 40% or the value of IC50 was less than 50 nM.). With `CN(C)c1cc(NC2CCC(NC(=O)OCc3ccc([N+](=O)[O-])cc3)CC2)nc2ccccc12` (centres unmarked) [compound 1548], the class under setting [6] was 3 (Class 3 The value of percent of control at 10^−7 M was more than 60% or the value of IC50 was more than 200 nM.). With `Cc1cc(C(=O)NC[C@H]2CC[C@@H](Nc3nccc(N(C)C)n3)CC2)ccc1[N+](=O)[O-]` [compound 940, N-[(cis-4-{[4-(dimethylamino)pyrimidin-2-yl]amino}cyclohexyl)methyl]-3-methyl-4-nitrobenzamide], under setting [4], the class is on record as 1 (Class 1: The value of percent of control at 10^−7 M was less than 40% or the value of IC50 was less than 50 nM.). On to `COc1ccccc1OC(=O)NC[C@H]1CC[C@@H](Nc2cc(N(C)C)c3ccccc3n2)CC1` [compound 1564], for which the class under setting [6] is on record as 3 (Class 3 The value of percent of control at 10^−7 M was more than 60% or the value of IC50 was more than 200 nM.). Regarding `CN(C)c1nc(N[C@H]2CC[C@@H](NC(=O)Nc3cc(F)cc4c3OCOC4)CC2)nc2c1CCCC2` [compound 1920], the class under setting [2] is on record as 3 (Class 3 The value of percent of control at 10^−7 M was more than 60% or the value of IC50 was more than 200 nM.). For `CN(C)c1cc(N[C@H]2CC[C@@H](NC(=O)C3CCCCC3)CC2)nc2ccccc12` [compound 97], under setting [2], the class is on record as 3 (Class 3 The value of percent of control at 10^−7 M was more than 60% or the value of IC50 was more than 200 nM.). On to `CCc1cccc(CC)c1NC(=S)N[C@H]1CC[C@@H](Nc2nc3c(c(N(C)C)n2)CCCC3)CC1` [compound 1757], for which the class under setting [4] is listed as 1 (Class 1: The value of percent of control at 10^−7 M was less than 40% or the value of IC50 was less than 50 nM.). As to `Cc1cc(N[C@H]2CC[C@@H](NC(=O)Nc3ccccc3Oc3ccccc3)CC2)nc2ccccc12` [Example 2561, N-{cis-4-[(4-methylquinolin-2-yl)amino]cyclohexyl}-N′-(2-phenoxyphenyl)urea], the class is 1. For `Cc1ccc(NC(=S)N[C@H]2CC[C@@H](Nc3nc4c(c(N(C)C)n3)CCCC4)CC2)c(Br)c1` [compound 1758], the class under setting [4] is 3 (Class 3 The value of percent of control at 10^−7 M was more than 60% or the value of IC50 was more than 200 nM.). As for `CN(C)c1cc(N[C@H]2CC[C@@H](NC(=O)c3ccccc3Sc3ccccc3C#N)CC2)nc2ccccc12` [compound 735], the class under setting [4] is on record as 3 (Class 3 The value of percent of control at 10^−7 M was more than 60% or the value of IC50 was more than 200 nM.). Same read-out and setting: the same measure for `CN(C)c1cc(N[C@H]2CC[C@@H](CNCc3cc(Cl)cc(Br)c3O)CC2)nc2ccccc12` [compound 1162]: 3 (Class 3 The value of percent of control at 10^−7 M was more than 60% or the value of IC50 was more than 200 nM.). Still for that read-out and setting: the same measure for `COc1cc(CC(=O)N[C@H]2CC[C@@H](Nc3nc4c(c(N(C)C)n3)CCCC4)CC2)cc(OC)c1O` [compound 976]: 1 (Class 1: The value of percent of control at 10^−7 M was less than 40% or the value of IC50 was less than 50 nM.); for `CN(C)c1nc(N[C@H]2CC[C@@H](CNC(=O)c3c(F)cccc3C(F)(F)F)CC2)nc2c1CCCC2` [compound 665]: 3 (Class 3 The value of percent of control at 10^−7 M was more than 60% or the value of IC50 was more than 200 nM.). Consider `COc1cccc(CC(=O)N[C@H]2CC[C@@H](Nc3cc(N(C)C)c4ccccc4n3)CC2)c1` [compound 67], for which the class under setting [2] is 3 (Class 3 The value of percent of control at 10^−7 M was more than 60% or the value of IC50 was more than 200 nM.).

Regarding `CCCCC/C(=C\c1ccccc1)CN[C@H]1CC[C@@H](Nc2nccc(N(C)C)n2)CC1` [compound 1232], the class under setting [4] is recorded as 3 (Class 3 The value of percent of control at 10^−7 M was more than 60% or the value of IC50 was more than 200 nM.). `COc1ccccc1OC(=O)NC[C@H]1CC[C@@H](Nc2nccc(N(C)C)n2)CC1` [compound 1644]: under setting [6], the class is 3 (Class 3 The value of percent of control at 10^−7 M was more than 60% or the value of IC50 was more than 200 nM.). Regarding `CN(C)c1ccnc(N[C@H]2CC[C@@H](NC(=O)Nc3ccccc3C(F)(F)F)CC2)n1` [compound 2186], the class under setting [4] is 3 (Class 3 The value of percent of control at 10^−7 M was more than 60% or the value of IC50 was more than 200 nM.).

As to `CN(C)c1nc(N[C@H]2CC[C@@H](CNC(=O)Nc3cc(F)cc(F)c3)CC2)nc2c1CCCC2` [compound 2495], under setting [4], the class is listed as 3 (Class 3 The value of percent of control at 10^−7 M was more than 60% or the value of IC50 was more than 200 nM.). For the compound `CN(C)c1nc(N[C@H]2CC[C@@H](CNCc3ccc(CO)o3)CC2)nc2c1CCCC2` [compound 1397], under setting [4], the class is listed as 3 (Class 3 The value of percent of control at 10^−7 M was more than 60% or the value of IC50 was more than 200 nM.). Take `CN(C)c1nc(N[C@H]2CC[C@@H](NC(=O)COc3ccccc3)CC2)nc2c1CCCC2` [compound 548]: the class under setting [1] is 1 (Class 1: The value of percent of control at 10^−7 M was less than 40% or the value of IC50 was less than 50 nM.).
